Measured values as given in patent US7772206B2, “Methods and compositions for the treatment of autoimmune disorders using clofarabine” (Genzyme Corporation, priority 2002, dated 2010).

Columns and labels:
[1] = degradation of the drug during dissolution, lyophilization and drying of the parenteral formulation; format: physicochemical; conditions: dissolution in tertiary butanol/Water for Injection at 5° C., lyophilization at −16° C. for 48 hours, drying at 15° C. under high vacuum for 48 hours, protected from light
Description: Clofarabine, 9.86 g, is wetted/partially dissolved with 600 mL of a 9:1 mixture of tertiary butanol and Water for Injection USP which is pre-cooled to 5° C. Once the drug powder is completely wetted, dissolution is completed by the addition of 600 mL of a 1:9 mixture of tertiary butanol and Water for Injection and 766 mL of a 1:1 mixture of tertiary butanol and Water for Injection which likewise is pre-cooled to 5° C. thereby making the final solution a 1:1 mixture. The dissolution is carried out under protection from light.
The solution formed above is promptly lyophilized in a Virtis INOTOP lyophilizer at −16° C. under light protectant conditions over a period of 48 hours. The resultant lyophilized product (lyophile) is then further dried at 15° C. under high vacuum for 48 hours. […] The lyophile is packaged under sterile conditions into 30 mL vials, each containing 50 mg of drug, 50 mg of mannitol and sodium hydroxide to adjust the pH to 7.7 and standard excess to allow for vial/needle/syringe loss.

[2] = maximum tolerated dose of clofarabine; format: in vivo; conditions: species and study not stated
Description: It may be necessary to use dosages of the active ingredient outside the ranges disclosed herein in some cases, as will be apparent to those of ordinary skill in the art, but the dosage should not fall below 1.0 mg/kg/day. The maximum tolerated doses of clofarabine is approximately 80 mg/kg per day. Furthermore, it is noted that the clinician or treating physician will know how and when to interrupt, adjust, or terminate therapy in conjunction with individual patient response.

Structure (SMILES): Nc1nc(Cl)nc2c1ncn2[C@@H]1O[C@H](CO)[C@@H](O)[C@@H]1F [Clofarabine, 2 Chloro 9 (2 deoxy 2 fluoro β D arabinofuranosyl)adenine]
- degradation of the drug [1]: No detectable degradation
- maximum tolerated dose [2]: approximately 80 mg/kg per day
